Where two headings read alike, the source gives them in different places.
Columns and labels:
[1] = molecular target: T1, p38 MAP Kinase a (Homo sapiens, UniProt Q16539); experiment: p38 MAP Kinase activity, radiometric filter-binding assay (Upstate); type: biochemical; details: IC50 range; ATP at or close to Km; read-out: Inhibitor activity versus p38 MAPKa
T1 construct: purchased Upstate (Dundee UK)
In short: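 Human p38 MAP kinase α (5-10 mU) with 0.33 mg/mL myelin basic protein, 25 mM Tris pH 7.5, 0.002 mM EGTA, 10 mM Mg acetate and [γ-33P]ATP at or near Km; 40 min at RT. Phosphoric acid stop, P30 filter binding and scintillation counting; IC50 from 9-step ⅓-log dilutions from 10 μM top concentration, duplicates.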

[2] = test system: THP-1 TNFα release; experiment: LPS-stimulation of THP-1 cells, TNF-α by ELISA; type: cell-based; details: IC50 range, LPS 1 μg/ml, 6 hrs, read-out: Inhibitor activity versus THP-1 TNFα release
In short: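 THP-1 cells (4×10^4/well) rested 16 h, preincubated 2 h with inhibitor, then stimulated with 1 μg/ml E. coli LPS for 6 h at 37 °C, 5% CO2. TNF-α quantified in cell-free supernatants by sandwich ELISA.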

[3] = test system: human whole blood TNFα release; experiment: LPS-stimulation of human whole blood, TNF-α by ELISA; type: cell-based; details: IC50 range, LPS 100 ng/ml, 6 hrs, read-out: Inhibitor activity versus human whole blood TNFα release
Experimental: Whole blood was taken by venous puncture using heparinised vacutainers (Becton Dickinson) and diluted in an equal volume of RPMI 1640 tissue culture media (Sigma). 100 μl was plated in V-bottomed 96 well tissue culture treated plates. 2 hrs after the addition of the inhibitor in 100 μl of RPMI 1640 media, the blood was stimulated with LPS (E. coli strain 005:B5, Sigma) at a final concentration of 100 ng/ml and incubated at 37° C. in 5% CO2 for 6 hrs. TNF-α levels were measured from cell-free supernatants by sandwich ELISA (R&D Systems #QTA00B)

T1 sequence (Q16539 whole entry): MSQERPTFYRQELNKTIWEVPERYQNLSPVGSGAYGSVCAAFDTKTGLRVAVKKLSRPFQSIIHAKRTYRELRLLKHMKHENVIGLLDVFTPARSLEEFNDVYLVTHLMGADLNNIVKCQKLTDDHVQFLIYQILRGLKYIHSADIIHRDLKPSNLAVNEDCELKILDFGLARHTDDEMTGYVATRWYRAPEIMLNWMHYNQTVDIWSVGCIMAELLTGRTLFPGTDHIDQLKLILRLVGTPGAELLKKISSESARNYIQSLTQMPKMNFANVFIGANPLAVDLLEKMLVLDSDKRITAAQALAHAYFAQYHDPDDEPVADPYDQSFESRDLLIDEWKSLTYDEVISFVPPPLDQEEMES

IC50 [1] [µM]	IC50 ([2]; Homo sapiens, THP-1) [µM]	IC50 [3] [µM]	Compound	IC50 [2] [µM]
0.1 to 1	> 1	> 1	CC(C)C[C@H](NCc1ccc(-n2c(N)c(C(=O)c3ccc(F)cc3)ccc2=O)cc1)C(=O)OC1CCCC1 [Example 3, Cyclopentyl(S)-2-{4-[6-Amino-5-(4-fluorobenzoyl)-2-oxo-2H-pyridin-1-yl]benzylamino}-4-methylpentanoate]	–
< 0.1	0.1 to 1	> 1	CC(C)C[C@H](NCc1ccc(-n2c(N)c(C(=O)c3ccc(F)cc3F)ccc2=O)cc1)C(=O)OC1CCCC1 [Example 9, Cyclopentyl(S)-2-{4-[6-Amino-5-(2,4-difluorobenzoyl)-2-oxo-2H-pyridin-1-yl]benzylamino}-4-methylpentanoate]	–
< 0.1	0.1 to 1	> 1	CC(C)C[C@H](NCc1cc(F)c(-n2c(N)c(C(=O)c3ccc(F)cc3F)ccc2=O)c(F)c1)C(=O)OC1CCCC1 [Example 11]	–
< 0.1	< 0.1	> 1	CC(C)C[C@H](NCCCOc1cc(F)c(-n2c(N)c(C(=O)c3ccc(F)cc3)ccc2=O)c(F)c1)C(=O)OC1CCCC1 [Example 15]	–
< 0.1	< 0.1	> 1	Cc1cc(C(=O)c2ccc(=O)n(-c3c(F)cc(OCCCN[C@@H](CC(C)C)C(=O)OC4CCCC4)cc3F)c2N)ccc1F [Example 19, Cyclopentyl(S)-2-(3-{4-[6-Amino-5-(4-fluoro-3-methylbenzoyl)-2-oxo-2H-pyridin-1-yl]-3,5-difluorophenoxy}propylamino)-4-methylpentanoate]	–
< 0.1	< 0.1	0.1 to 1	Nc1c(C(=O)c2ccc(F)cc2F)ccc(=O)n1-c1c(F)cc(OCCCN[C@H](C(=O)OC2CCCC2)c2ccccc2)cc1F [Example 20, Cyclopentyl(S)-(3-{4-[6-Amino-5-(2,4-difluorobenzoyl)-2-oxo-2H-pyridin-1-yl]-3,5-difluorophenoxy}propylamino)phenyl acetate]	–
< 0.1	< 0.1	> 1	Nc1c(C(=O)c2ccc(F)cc2F)ccc(=O)n1-c1c(F)cc(OCCCN[C@@H](Cc2ccccc2)C(=O)OC2CCCC2)cc1F [Example 21, Cyclopentyl(S)-2-(3-{4-[6-Amino-5-(2,4-difluorobenzoyl)-2-oxo-2H-pyridin-1-yl]-3,5-difluorophenoxy}-propylamino)-3-phenyl propionate]	–
< 0.1	< 0.1	0.1 to 1	CC(C)C[C@H](NCCCOc1cc(F)c(-n2c(N)c(C(=O)c3ccc(F)cc3F)ccc2=O)c(F)c1)C(=O)OC1CCCC1 [Example 22, Cyclopentyl(S)-2-(3-{4-[6-Amino-5-(2,4-difluorobenzoyl)-2-oxo-2H-pyridin-1-yl]-3,5-difluorophenoxy}propylamino)-4-methyl pentanoate]	–
< 0.1	0.1 to 1	> 1	CC(C)C[C@H](NCCCOc1ccc(-n2c(N)c(C(=O)c3ccc(F)cc3)ccc2=O)cc1)C(=O)OC1CCCC1 [Example 25, Cyclopentyl(S)-2-(3-{4-[6-Amino-5-(4-fluorobenzoyl)-2-oxo-2H-pyridin-1-yl]phenoxy}propylamino)-4-methylpentanoate]	–
0.1 to 1	0.1 to 1	> 1	Cc1cc(C(=O)c2ccc(=O)n(-c3ccc(OCCCN[C@@H](CC(C)C)C(=O)OC4CCCC4)cc3)c2N)ccc1F [Example 27, Cyclopentyl(S)-2-(3-{4-[6-Amino-5-(4-fluoro-3-methylbenzoyl)-2-oxo-2H-pyridin-1-yl]phenoxy}propylamino)-4-methylpentanoate]	–
< 0.1	< 0.1	> 1	CC(C)(C)OC(=O)[C@@H](NCCCOc1cc(F)c(-n2c(N)c(C(=O)c3ccc(F)cc3F)ccc2=O)c(F)c1)c1ccccc1 [Example 36, tert-Butyl(S)-(3-{4-[6-Amino-5-(2,4-difluorobenzoyl)-2-oxo-2H-pyridin-1-yl]-3,5-difluorophenoxy}propylamino)phenyl acetate]	–
< 0.1	< 0.1	> 1	CC(C)C[C@H](NCCCOc1cc(F)c(-n2c(N)c(C(=O)c3ccc(F)cc3F)ccc2=O)c(F)c1)C(=O)OC(C)(C)C [Example 38, tert-Butyl(S)-2-(3-{4-[6-Amino-5-(2,4-difluorobenzoyl)-2-oxo-2H-pyridin-1-yl]-3,5-difluorophenoxy}propylamino)-4-methyl pentanoate]	–
0.1 to 1	< 0.1	> 1	Nc1c(C(=O)c2ccc(F)cc2F)ccc(=O)n1-c1c(F)cc(OCCCN[C@@H](C(=O)OC2Cc3ccccc3C2)c2ccccc2)cc1F [Example 41, 2,3-dihydro-1H-inden-2-yl (2R)-[(3-{4-[6-amino-5-(2,4-difluorobenzoyl)-2-oxopyridin-1(2H)-yl]-3,5-difluorophenoxy}propyl)amino](phenyl)acetate]	–
< 0.1	< 0.1	0.1 to 1	Nc1c(C(=O)c2ccc(F)cc2F)ccc(=O)n1-c1c(F)cc(OCCCN[C@@H](C(=O)OC2CCCC2)c2ccccc2)cc1F [Example 42, Cyclopentyl (2R)-[(3-{4-[6-amino-5-(2,4-difluorobenzoyl)-2-oxopyridin-1 (2H)-yl]-3,5-difluorophenoxy}propyl)amino](phenyl)acetate]	–
0.1 to 1	< 0.1	0.1 to 1	CC(C)C[C@H](NCCCOc1cc(F)c(-n2c(N)c(C(=O)c3ccc(F)cc3F)ccc2=O)c(F)c1)C(=O)OCCN(C)C [Example 46, 2-(Dimethylamino)ethyl N-(3-{4-[6-amino-5-(2,4-difluorobenzoyl)-2-oxopyridin-1(2H)-yl]-3,5-difluorophenoxy}propyl)-L-leucinate]	–
< 0.1	< 0.1	0.1 to 1	CC(C)C[C@H](NCCCOc1cc(F)c(-n2c(N)c(C(=O)c3ccc(F)cc3F)ccc2=O)c(F)c1)C(=O)OCCN1CCOCC1 [Example 47, 2-Morpholin-4-ylethyl N-(3-{4-[6-amino-5-(2,4-difluorobenzoyl)-2-oxopyridin-1(2H)-yl]-3,5-difluorophenoxy}propyl)-L-leucinate]	–
< 0.1	< 0.1	> 1	Nc1c(C(=O)c2ccc(F)cc2F)ccc(=O)n1-c1c(F)cc(OCCCN[C@H](C(=O)OC2CCCC2)C2CCCCC2)cc1F [Example 48, Cyclopentyl(2S)-[(3-{4-[6-amino-5-(2,4-difluorobenzoyl)-2-oxopyridin-1(2H)-yl]-3,5-difluorophenoxy}propyl)amino](cyclohexyl)acetate]	–
< 0.1	0.1 to 1	> 1	CC(C)(C)OC(=O)[C@@H](NCCCOc1cc(F)c(-n2c(N)c(C(=O)c3ccc(F)cc3F)ccc2=O)c(F)c1)C1CCCCC1 [Example 49, tert-Butyl (2S)-[(3-{4-[6-amino-5-(2,4-difluorobenzoyl)-2-oxopyridin-1(2H)-yl]-3,5-difluorophenoxy}propyl)amino](cyclohexyl)acetate]	–
< 0.1	< 0.1	0.1 to 1	NCC[C@H](NCCCOc1cc(F)c(-n2c(N)c(C(=O)c3ccc(F)cc3F)ccc2=O)c(F)c1)C(=O)OC1CCCC1 [Example 52, Cyclopentyl(2S)-4-amino-2-[(3-{4-[6-amino-5-(2,4-difluorobenzoyl)-2-oxopyridin-1(2H)-yl]-3,5-difluorophenoxy}propyl)amino]butanoate]	–
< 0.1	< 0.1	0.1 to 1	CC(C)C[C@H](NCCCCCOc1cc(F)c(-n2c(N)c(C(=O)c3ccc(F)cc3F)ccc2=O)c(F)c1)C(=O)OC1CCCC1 [Example 53, Cyclopentyl N-(5-{4-[6-amino-5-(2,4-difluorobenzoyl)-2-oxopyridin-1(2H)-yl]-3,5-difluorophenoxy}pentyl)-L-leucinate]	–
0.1 to 1	< 0.1	0.1 to 1	CC(C)C[C@H](NCCc1ccc(-n2c(N)c(C(=O)c3ccc(F)cc3)ccc2=O)cc1)C(=O)OC1CCCC1 [Example 57, Cyclopentyl N-[2-(4-{6-amino-5-[(4-fluorophenyl)carbonyl]-2-oxopyridin-1(2H)-yl}phenyl)ethyl]-L-leucinate]	–
< 0.1	> 1	–	O=C(c1ccc(F)cc1)c1ccc(=O)[nH]c1Nc1c(F)cc(CN[C@@H](Cc2ccccc2)C(=O)OC2CCCC2)cc1F [Example 71, Cyclopentyl(S)-2-[3,5-Difluoro-4-[3-(4-fluorobenzoyl)-6-oxo-1,6-dihydropyridin-2-ylamino]benzylamino]-3-phenylpropionate]	–

Compound	IC50 [1] [µM]	IC50 ([2]; Homo sapiens, THP-1) [µM]	IC50 [3] [µM]	IC50 [2] [µM]
Cyclopentyl(S)-2-{4-[6-Amino-5-(2,4-fluorobenzoyl)-2-oxo-2H-pyridin-1-yl]-3,5-difluorobenzylamino}-3-phenylpropionate [Example 10]	< 0.1	–	–	0.1 to 1
tert-Butyl(S)-(3-{4-[6-Amino-5-(4-difluoro benzoyl)-2-oxo-2H-pyridin-1-yl]-3,5-difluorophenoxy}propylamino)phenyl acetate [Example 45]	< 0.1	–	–	< 0.1

From patent publication US8044211B2 (Chroma Therapeutics Ltd., priority 2006, dated 2011)
